Earlier results on two molecules are cited in patent US6339063B1, “9a-azalides as veterinary antimicrobial agents” (Merck & Co., Inc., priority 1997, dated 2002).

This series relates to Pasteurella multocida. The note with it: as said in U.S. Pat. Nos. 4,474,768, 4,464,527 and 4,526,889.

As to `CC[C@H]1OC(=O)[C@H](C)[C@@H](O[C@H]2C[C@@](C)(OC)[C@@H](O)[C@H](C)O2)[C@H](C)[C@@H](O[C@@H]2O[C@H](C)C[C@H](N(C)C)[C@H]2O)[C@](C)(O)C[C@@H](C)CN(C)[C@H](C)[C@@H](O)[C@]1(C)O` [azithromycin, 9-deoxo-9a-aza-9a-methyl-9a-homoerythromycin A], the “activity against Pasteurella multocida in vitro” value is “active”.

In the case of `CCC1OC(=O)C(C)C(OC2CC(C)(OC)C(O)C(C)O2)C(C)C(OC2OC(C)CC(N(C)C)C2O)C(C)(O)CC(C)CN(C)C(C)C(O)C1(C)O` (stereo not drawn) [4″-epi-azithromycin], the “activity against Pasteurella multocida in vitro” value is given as “active”.
